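Assay format: 96-well plates, 48-hour exposure. The concentration for 50% growth inhibition is given as GI50. Definition used: TGI = concentration required for complete inhibition of growth.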
Key:
Test in all cases: growth of human tumour cells (NCI), 48 h
[1] = test system: K-562 leukemia
[2] = test system: NCI/ADR-RES ovarian
[3] = test system: A549 NSCLC
[4] = test system: SW-620 colon
[5] = test system: MOLT-4 leukemia
[6] = test system: NCI-H226 lung
[7] = test system: UACC-257 melanoma
[8] = test system: ACHN renal
[9] = test system: CCRF-CEM leukemia
[10] = test system: A498 renal
[11] = test system: NCI-H23 lung
[12] = test system: PC-3 prostate
[13] = test system: LOX IMVI melanoma
[14] = test system: KM12 colon
[15] = test system: SK-MEL-2 melanoma
[16] = test system: SF-539 CNS
[17] = test system: SN12C renal

Structure (SMILES)	TGI [1] [µM]	TGI [2] [µM]	TGI [3] [µM]	TGI [4] [µM]	TGI [5] [µM]	TGI [6] [µM]	TGI [7] [µM]	TGI [8] [µM]	TGI [9] [µM]	TGI [10] [µM]	TGI [11] [µM]	TGI [12] [µM]	TGI [13] [µM]	TGI [14] [µM]	TGI [15] [µM]	TGI [16] [µM]	TGI [17] [µM]	GI50 [17] [µM]	GI50 [9] [µM]	GI50 [16] [µM]
Cn1c(N(CCO)CCO)cnc1[N+](=O)[O-]	> 100	> 100	> 100	> 100	> 100	> 100	> 100	> 100	> 100	> 100	> 100	> 100	> 100	> 100	> 100	> 100				
COc1cc2c(c(N)c1OC)C(=O)/C(=C/c1cc(C)c(O)c(C)c1)C2		> 100	> 100	> 100	> 100	> 100	> 100	> 100	11.7	> 90.4	> 46.6	> 100	> 100	1.82	> 95.4		> 100			
COC(=O)c1ccccc1/C=C1\Cc2cc3c(cc2C1=O)CCC3		> 100	> 100	> 100	> 100	> 100	> 100	> 100		> 100	> 100	> 100	> 100	> 100	> 100	> 100	> 100			
CCCCCCNC(=O)c1cc(C#Cc2cc(OC)ccc2OC)ccc1OC	> 100	> 100	> 100	> 100	> 100		> 100	> 100	> 100	> 100	> 100	> 100	> 100	> 100	> 100	> 100	> 100	> 100	7.9	> 100
COc1cc(COC(=O)N2CCCCC2C(=O)O)c([N+](=O)[O-])cc1OC (centres undefined)	> 100	> 100	> 100	> 100	> 100	> 100	> 100	> 100	> 100	> 100	> 100	> 100		> 100		> 100	> 100			
CN(C)C(=S)N/N=C\C(=N/NC(=S)N(C)C)c1ccccc1	> 100	> 25.1	> 100	> 100	> 100	> 30.6	> 100	> 100		49.1	> 45.4	> 100	> 100	> 100	> 100	> 100	> 100			
Cc1nc2c(=O)[nH]c3ccccc3c2o1		> 100	> 100	> 100		> 100	> 100	> 100	> 100	> 100	> 100	> 100	> 100	> 100	> 100	> 100	> 100			
Cn1c(=O)cc(NNc2ccc(Br)cc2)[nH]c1=O	> 100	> 100	29.8	15.6		39.1	29.1	29.9	> 100	> 100		22.1	4.13	10.4		8.14	22.6			
O=c1n(CCCN2CCN(c3cccc(Cl)c3)CC2)nc2n1-c1ccc3ccccc3c1SC2	> 100	> 100	> 100	> 100	> 100	> 100	> 100		> 100	> 100		> 100	> 100	> 100	> 100	> 100	> 100			
O=c1[nH]c(=O)n(C2CC(O)C(COP(=O)(O)OC3CC(n4cc(F)c(=O)[nH]c4=O)OC3COP(=O)(O)OC3CC(n4cc(F)c(=O)[nH]c4=O)OC3COP(=O)(O)OC3CC(n4cc(F)c(=O)[nH]c4=O)OC3COP(=O)(O)OC3CC(n4cc(F)c(=O)[nH]c4=O)OC3COP(=O)(O)OC3CC(n4cc(F)c(=O)[nH]c4=O)OC3COP(=O)(O)OC3CC(n4cc(F)c(=O)[nH]c4=O)OC3COP(=O)(O)OC3CC(n4cc(F)c(=O)[nH]c4=O)OC3COP(=O)(O)OC3CC(n4cc(F)c(=O)[nH]c4=O)OC3COP(=O)(O)OC3CC(n4cc(F)c(=O)[nH]c4=O)OC3CO)O2)cc1F (centres undefined)	> 50	> 50	> 50	> 50	> 50	> 50	> 50	> 50		1.12	> 50	> 50	> 50	> 50	> 50	< 0.005	> 50			
CC/C(Cl)=N\OC(=O)Nc1ccccc1OC(F)(F)F	4.55	35.5	51.5		4.77	38.1	32.8	3.69	3.42	45.4	45.8	33.5	5.65	41.6	32.8	31	14.2			
Cc1[nH]c2ncn3ncnc3c2c1Cc1ccccc1		> 100	> 100	> 100	> 100	> 100	> 100	> 100	> 100	> 100	> 100	> 100		> 100	> 100	> 100	> 100			
COc1ccc(/C=C/C(=O)c2nc3ccccc3[nH]2)cc1	> 100	53.5	> 81.8	49.1	> 67.1	> 54.7	52	34.5	> 100	> 82.7		87.6	28.2	19.8	> 100	26.7	73.9			
O=C(Cn1c(C(=O)/C=C/c2ccco2)nc2ccccc21)c1ccc(Cl)cc1	51	30.4	> 100	> 100		> 100	51.9	> 100	27.4	44.4	28.1	44.2	26.7	47.1	27.8	> 100	61.5			
